Data taken from patent US6455074B1, “Methods for fabricating polymer-based controlled release devices” (Alkermes Controlled Therapeutics, Inc., priority 1997, dated 2002).

Test system: estrous cycle of the rat
Test: Rat Estrous Cyclicity Model
Format: in vivo
Protocol: The Rat Estrous Cyclicity Model is described in detail in Hahn et al., Biological Assays Utilized to Characterize LHRH and its Analogs. In: LHRH and its Analogs, Contraception and Therapeutic Applications (Eds. Vickery B H, Nestor J J, and Hafez ESE), pp. 49-60. MTP Press Ltd, Lancaster, England, 1984, the contents of which are incorporated herein by reference. The model is used to assess the pharnacodynamic effect which an effective serum level of azaline B (at least 2.0 ng/ml), provided by the administration of a sustained release device of the invention, has on the estrous cycle of the rat. When the minimum effective concentration of azaline B is present in serum, the estrus phase of the estrous cycle of the rat is suppressed and the rat remains in the diestrus phase of the estrous cycle.
Microparticles containing an effective amount of azaline B were prepared according to the “Particulate Method,” described above, and the methods of Examples 1 and 3. The presence of azaline B activity was measured as the percent of a test group which remained in the diestrus phase of the estrous cycle. Animals were subcutaneously injected with equal amounts of azaline B either encapsulated in a microparticle or unencapsulated. […] The results are depicted in FIGS. 1 and 2 which show a plot of the percent of animals per treatment group in diestrus for each formulation evaluated versus time.

Substance: Ac-D-Nal′-D-Cpa^2-D-Pal^3-Ser^4-Aph^5(atz)-D-Aph^6(atz)-Leu^7-Ilys^8-Pro^9-D-Ala^10 [azaline B]
- effective serum level of azaline B (minimum effective concentration suppressing estrus phase): at least 2.0 ng/ml
